Source: patent US4997817A, “Phyllanthostatin A” (Arizona Board of Reagents, priority 1990, dated 1991)
In brackets after ≈: the same amount, converted by molar mass.

Legend:
[1] = Thermal stability in DMSO-d6 (variable temperature 1H nmr); type: physicochemical; conditions: DMSO-d6, higher temperatures (FIGS. 2d,e); signals attributable to justicidin B appeared
Procedure: Signals of the remaining carbons appeared as sharp single lines. These observations are explained by hindered rotation around the C-1/C-1' axis, resulting in conformational isomers. In order to provide evidence for or disprove this hypotheses, the ^1 H nmr spectra of the glycoside (shown above) were recorded in DMSO-d6 at different temperatures. Table 1 summarizes the chemical shifts observed at 25, 65, 105, 135, and 145° C. […] Room temperature (FIG. 2a) led to a complex coupling pattern that became more easily interpretable when the spectrum was recorded at 65° C. (FIG. 2b). Signals due to H-2', H-5' and H-6' broadened and disappeared when the temperature was raised (FIG. 2c). […] Other protons (not shown in FIG. 2) also appeared as single resonances at higher temperatures.

[2] = Stability in solution at room temperature (nmr observation; MeOH solutions stored two days); type: physicochemical
[3] = test system: P388 murine lymphocytic leukemia; assay: Cell growth inhibition against P388 murine lymphocytic leukemia (in vitro PS system), NCI standard protocol; type: cell-based; conditions: Mus musculus, read-out: ED50 (P388 murine lymphocytic leukemia, in vitro PS system)
Excerpt: Hplc-uv/vis and cell growth inhibition against the P388 murine lymphocytic leukemia (in vitro PS system) were used to guide the isolation of the lignan.

**Q.** Which results are given for `COc1cc2cc(COC(C)=O)c(C(=O)O[C@@H]3O[C@H](CO)[C@@H](O)[C@H](O)[C@H]3O)c(-c3ccc4c(c3)OCO4)c2cc1OC` [Phyllanthostatin A]?
**A.** decomposition at higher temperatures [1]: gradually decomposed; justicidin B detected in stored solution ([2]; MeOH solutions, room temperature, two days): Justicidin B was also detected in MeOH solutions of glycoside stored at room temperature for two days; stability in solution ([2]; in solution): unstable in solution; IC50 [3]: 4 µg/mL (≈ 6.82 µM)
